Experimental data taken from PubChem BioAssay (NCI).
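Growth conditions: 96-well plates. Treatment: test compound, 48 hours, 5 concentrations. Analysis: linear interpolation between bracketing concentrations; unreached endpoints set to highest concentration. Here, GI50 denotes the concentration required for 50% inhibition of growth. Definition used: TGI = concentration required for complete inhibition of growth.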

What was measured:
Assay in all cases: DTP human tumour cell line panel, 48 h
786-0 renal = test system: 786-0 renal
A498 renal = test system: A498 renal
A549 NSCLC = test system: A549 NSCLC
ACHN renal = test system: ACHN renal
BT-549 breast = test system: BT-549 breast
CCRF-CEM leukemia = test system: CCRF-CEM leukemia
COLO 205 colon = test system: COLO 205 colon
DU-145 prostate = test system: DU-145 prostate
EKVX NSCLC = test system: EKVX NSCLC
HCC-2998 colon = test system: HCC-2998 colon
HCT-116 colon = test system: HCT-116 colon
HCT-15 colon = test system: HCT-15 colon
HL-60(TB) leukemia = test system: HL-60(TB) leukemia
HOP-62 NSCLC = test system: HOP-62 NSCLC
HOP-92 NSCLC = test system: HOP-92 NSCLC
HS 578T breast = test system: HS 578T breast
HT29 colon = test system: HT29 colon
IGROV1 ovarian = test system: IGROV1 ovarian
KM12 colon = test system: KM12 colon
LOX IMVI melanoma = test system: LOX IMVI melanoma
M14 melanoma = test system: M14 melanoma
MALME-3M melanoma = test system: MALME-3M melanoma
MCF7 breast = test system: MCF7 breast
MDA-MB-231 breast = test system: MDA-MB-231 breast
MDA-MB-435 = test system: MDA-MB-435
MOLT-4 leukemia = test system: MOLT-4 leukemia
NCI-H226 lung = test system: NCI-H226 lung
NCI-H23 lung = test system: NCI-H23 lung
NCI-H460 lung = test system: NCI-H460 lung
NCI-H522 lung = test system: NCI-H522 lung
NCI/ADR-RES ovarian = test system: NCI/ADR-RES ovarian
OVCAR-3 ovarian = test system: OVCAR-3 ovarian
OVCAR-4 ovarian = test system: OVCAR-4 ovarian
OVCAR-5 ovarian = test system: OVCAR-5 ovarian
OVCAR-8 ovarian = test system: OVCAR-8 ovarian
PC-3 prostate = test system: PC-3 prostate
RPMI-8226 leukemia = test system: RPMI-8226 leukemia
RXF 393 renal = test system: RXF 393 renal
SF-268 CNS = test system: SF-268 CNS
SF-295 CNS = test system: SF-295 CNS
SF-539 CNS = test system: SF-539 CNS
SK-MEL-2 melanoma = test system: SK-MEL-2 melanoma
SK-MEL-28 melanoma = test system: SK-MEL-28 melanoma
SK-MEL-5 melanoma = test system: SK-MEL-5 melanoma
SK-OV-3 ovarian = test system: SK-OV-3 ovarian
SN12C renal = test system: SN12C renal
SNB-19 CNS = test system: SNB-19 CNS
SNB-75 CNS = test system: SNB-75 CNS
SR leukemia = test system: SR leukemia
SW-620 colon = test system: SW-620 colon
T-47D breast = test system: T-47D breast
TK-10 renal = test system: TK-10 renal
U251 CNS = test system: U251 CNS
UACC-257 melanoma = test system: UACC-257 melanoma
UACC-62 melanoma = test system: UACC-62 melanoma
UO-31 renal = test system: UO-31 renal

With COc1ccc(C(=O)/C=C/c2ccc(OCc3ccc(Cl)cc3)cc2)cc1OC the GI50 (786-0 renal) was 71.2 µM, the TGI (786-0 renal) was 470 µM and the GI50 (A498 renal) was 141 µM. For the same compound, the TGI (A498 renal) was 604 µM, the GI50 (A549 NSCLC) was 77.1 µM and the TGI (A549 NSCLC) was greater than 1000 µM. It also gave a GI50 (ACHN renal) of 57.9 µM, a TGI (ACHN renal) greater than 1000 µM and a GI50 (BT-549 breast) of 81.8 µM. For the same compound, the TGI (BT-549 breast) was 586 µM, the GI50 (CCRF-CEM leukemia) was 190 µM and the TGI (CCRF-CEM leukemia) was greater than 1000 µM. It also gave a GI50 (COLO 205 colon) of 253 µM, a TGI (COLO 205 colon) greater than 1000 µM and a GI50 (DU-145 prostate) of 202 µM. It also gave a TGI (DU-145 prostate) greater than 1000 µM, a GI50 (EKVX NSCLC) of 66.4 µM and a TGI (EKVX NSCLC) greater than 1000 µM. For the same compound, the GI50 (HCC-2998 colon) was 960 µM, the TGI (HCC-2998 colon) was greater than 1000 µM and the GI50 (HCT-116 colon) was 40.8 µM. The TGI (HCT-116 colon) was greater than 1000 µM, the GI50 (HCT-15 colon) was 112 µM and the TGI (HCT-15 colon) was greater than 1000 µM. For the same compound, the GI50 (HL-60(TB) leukemia) was 65 µM, the TGI (HL-60(TB) leukemia) was 296 µM and the GI50 (HOP-62 NSCLC) was 110 µM. It also gave a TGI (HOP-62 NSCLC) of 419 µM, a GI50 (HOP-92 NSCLC) of 44.5 µM and a TGI (HOP-92 NSCLC) of 365 µM. The GI50 (HS 578T breast) was 108 µM, the TGI (HS 578T breast) was greater than 1000 µM and the GI50 (HT29 colon) was 163 µM. The TGI (HT29 colon) was greater than 1000 µM, the GI50 (IGROV1 ovarian) was 118 µM and the TGI (IGROV1 ovarian) was greater than 1000 µM. The GI50 (KM12 colon) was 171 µM, the TGI (KM12 colon) was greater than 1000 µM and the GI50 (LOX IMVI melanoma) was 91.3 µM. The TGI (LOX IMVI melanoma) was greater than 1000 µM, the GI50 (M14 melanoma) was 150 µM and the TGI (M14 melanoma) was greater than 1000 µM. It also gave a GI50 (MALME-3M melanoma) of 176 µM, a TGI (MALME-3M melanoma) of 639 µM and a GI50 (MCF7 breast) of 47.4 µM. It also gave a TGI (MCF7 breast) greater than 1000 µM, a GI50 (MDA-MB-231 breast) of 94.6 µM and a TGI (MDA-MB-231 breast) greater than 1000 µM. For the same compound, the GI50 (MDA-MB-435) was 150 µM, the TGI (MDA-MB-435) was greater than 1000 µM and the GI50 (MOLT-4 leukemia) was 276 µM. For the same compound, the TGI (MOLT-4 leukemia) was greater than 1000 µM, the GI50 (NCI-H226 lung) was 63.1 µM and the TGI (NCI-H226 lung) was 635 µM. The GI50 (NCI-H23 lung) was 172 µM, the TGI (NCI-H23 lung) was greater than 1000 µM and the GI50 (NCI-H460 lung) was 68.6 µM. For the same compound, the TGI (NCI-H460 lung) was greater than 1000 µM, the GI50 (NCI-H522 lung) was 88.4 µM and the TGI (NCI-H522 lung) was 351 µM. The GI50 (NCI/ADR-RES ovarian) was 109 µM, the TGI (NCI/ADR-RES ovarian) was greater than 1000 µM and the GI50 (OVCAR-3 ovarian) was 55.6 µM. For the same compound, the TGI (OVCAR-3 ovarian) was 230 µM, the GI50 (OVCAR-4 ovarian) was 44.2 µM and the TGI (OVCAR-4 ovarian) was 372 µM. For the same compound, the GI50 (OVCAR-5 ovarian) was 499 µM, the TGI (OVCAR-5 ovarian) was greater than 1000 µM and the GI50 (OVCAR-8 ovarian) was 54.8 µM. It also gave a TGI (OVCAR-8 ovarian) of 633 µM, a GI50 (PC-3 prostate) of 57.6 µM and a TGI (PC-3 prostate) of 435 µM. The GI50 (RPMI-8226 leukemia) was 98.4 µM, the TGI (RPMI-8226 leukemia) was 773 µM and the GI50 (RXF 393 renal) was 90.6 µM. For the same compound, the TGI (RXF 393 renal) was 502 µM, the GI50 (SF-268 CNS) was 159 µM and the TGI (SF-268 CNS) was greater than 1000 µM. The GI50 (SF-295 CNS) was 189 µM, the TGI (SF-295 CNS) was greater than 1000 µM and the GI50 (SF-539 CNS) was 159 µM. The TGI (SF-539 CNS) was greater than 1000 µM, the GI50 (SK-MEL-2 melanoma) was 252 µM and the TGI (SK-MEL-2 melanoma) was greater than 1000 µM. It also gave a GI50 (SK-MEL-28 melanoma) of 366 µM, a TGI (SK-MEL-28 melanoma) greater than 1000 µM and a GI50 (SK-MEL-5 melanoma) of 64.3 µM. It also gave a TGI (SK-MEL-5 melanoma) of 264 µM, a GI50 (SK-OV-3 ovarian) of 142 µM and a TGI (SK-OV-3 ovarian) of 607 µM. The GI50 (SN12C renal) was 221 µM, the TGI (SN12C renal) was greater than 1000 µM and the GI50 (SNB-19 CNS) was 42.7 µM. For the same compound, the TGI (SNB-19 CNS) was 206 µM, the GI50 (SNB-75 CNS) was 111 µM and the TGI (SNB-75 CNS) was 484 µM. The GI50 (SR leukemia) was 148 µM, the TGI (SR leukemia) was greater than 1000 µM and the GI50 (SW-620 colon) was 196 µM. The TGI (SW-620 colon) was greater than 1000 µM, the GI50 (T-47D breast) was 71.9 µM and the TGI (T-47D breast) was greater than 1000 µM. It also gave a GI50 (TK-10 renal) of 396 µM, a TGI (TK-10 renal) greater than 1000 µM and a GI50 (U251 CNS) of 58.8 µM. It also gave a TGI (U251 CNS) of 314 µM, a GI50 (UACC-257 melanoma) of 244 µM and a TGI (UACC-257 melanoma) greater than 1000 µM. For the same compound, the GI50 (UACC-62 melanoma) was 76.8 µM, the TGI (UACC-62 melanoma) was 376 µM and the GI50 (UO-31 renal) was 190 µM. For the same compound, the TGI (UO-31 renal) was greater than 1000 µM.
